One test addresses T1, GV A105V protease (Norovirus, UniProt Q80J95, A1099V).
T1 construct: plasmids expressing norovirus protease from GI.1 (M87661), GII.4 (DQ658413), or GV (DQ285629) norovirus; expressed in transfected cells; host or cells: HEK293T
T1 sequence (Q80J95 995-1177 A1099V): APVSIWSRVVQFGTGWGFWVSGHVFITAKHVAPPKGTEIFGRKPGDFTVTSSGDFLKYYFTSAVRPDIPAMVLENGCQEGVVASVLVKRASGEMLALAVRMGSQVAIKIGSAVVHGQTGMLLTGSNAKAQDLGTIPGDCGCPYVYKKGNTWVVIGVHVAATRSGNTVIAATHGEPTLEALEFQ
Nature of the test: Cell-based FRET assay, GV A105V protease. Also noted: species or system murine norovirus (MNV) GV (DQ285629). The conditions noted are these: GV A105V vs GV WT. An excerpt:
The generation of plasmids expressing norovirus protease from GI.1 (M87661), GII.4 (DQ658413), or GV (DQ285629) norovirus and FRET assay constructs has been described previously ([18]). The plasmids carrying GI, GII, and GV proteases with the A105V, I109V, or A105V/I109V mutation were generated from the wild-type (WT) protease constructs described above by the QuikChange site-directed mutagenesis method. Mutant MNV genomes for reverse genetics were generated by two-step PCR mutagenesis of the WT MNV genome (pT7 MNV 3RZ) construct as described previously ([27]). The primers used for generation of the plasmids are listed in Tables S1 and S2 in the supplemental material.
The YFP/CFP ratio was used to determine FRET efficiency, as described previously ([18], [40]). Briefly, HEK293T cells were plated into black 96-well cell culture microplates (Greiner Bio-One) at a density of 5 × 10^4 cells/well in 100 μl of DMEM containing 10% fetal bovine serum with or without various concentrations of rupintrivir and then incubated for 4 h in a CO2 incubator at 37°C. […] The plates were then analyzed on a SpectraMax i3 instrument in fluorescence mode, with excitation set at 434 nm and the reading emissions set at 477 nm (CFP) and 527 nm (YFP). The background fluorescence from wells transfected with pcDNA3.1 was determined and subtracted. […]

For a further test, the system named is Norwalk virus replicon. As to the kind of experiment: Susceptibility of HGT-NV replicon cells passaged in parallel in DMSO (qRT-PCR). The class given is cell-based, Human norovirus (HuNoV) GI. On the procedure: (§1) Given the potent effects of rupintrivir on HGT-NV cells, we sought to determine whether rupintrivir-resistant replicons could be generated. To this end, HGT-NV cells were treated with 5 μM rupintrivir for 12 days in the absence of G418 selection, followed by subsequent passages in the presence of G418 with increasing concentrations of rupintrivir for up to 45 days (Fig. 1D). This approach yielded three lineages of replicon cells which were resistant to 10, 15, and 20 μM rupintrivir. To identify the mutations conferring the resistance to rupintrivir, we isolated cell clones by limiting dilution using replicon cells surviving after 45 days of culture and then evaluated the rupintrivir sensitivity of the replicon cells. […] All clones treated with 10 μM rupintrivir had the I109V single amino acid substitution, while the A105V/I109V double amino acid substitution was observed only in clones treated with 15 and 20 μM rupintrivir. […]
(§2) The inhibitory effect of rupintrivir on HuNoV replication was assessed by quantification of the levels of GI NuNoV RNA and β-actin RNA as the reference gene. […] The real-time quantitative reverse transcription-PCR (qRT-PCR) assay was performed by using a One-Step Plus qRT-PCR kit according to the protocol of the manufacturer (Primer Design). […] Relative quantification was performed using the 2^−ΔΔCT threshold cycle (CT) method ([38]). […]

The test system of test [1] is rupintrivir-resistant Norwalk virus replicon. Nature of the test: Susceptibility of rupintrivir-resistant replicon cells, all clones (qRT-PCR). The test is classed as cell-based, Human norovirus (HuNoV) GI. The settings on record: resistant clones vs DMSO-passaged cells. The method, then:
as §1, §2
A general note: In antiviral work, replicon cells carry a viral genome segment that copies itself.

For `CCOC(=O)/C=C/[C@H](C[C@@H]1CCNC1=O)NC(=O)[C@@H](CC(=O)[C@@H](NC(=O)c1cc(C)on1)C(C)C)Cc1ccc(F)cc1` [rupintrivir, Rupintrivir], the “impact of substitution on susceptibility” value on GV A105V protease is “no appreciable impact”. Besides, in the test with Norwalk virus replicon (DMSO-passaged cells, relative to DMSO), the “Fold change in sensitivity” value stood at 1.0. For the same molecule, the EC50 (usually the concentration that produces a half-maximal response) with Norwalk virus replicon (Norwalk virus, read-out: Mean EC50 ± SD) was found to be 1.3 ± 0.2 µM. Besides, in test [1], the fold reduced sensitivity is on record as 4- to 11 fold.

The values above are taken from article PMC5923142, “Selection and Characterization of Rupintrivir-Resistant Norwalk Virus Replicon Cells In Vitro” (Antimicrobial Agents and Chemotherapy, 2018).
